Values after ≈ are worked out from the molar mass of the structure shown.
Legend:
S. aureus ATCC6538P = assay: MIC assay; assay type: cell-based, Staphylococcus aureus; details: Staphylococcus aureus, ATCC6538P; two-fold serial dilutions in liquid media; n = 2–3
[1] = system: Candida tropicalis (DSM9419); assay: MIC assay; assay type: cell-based; details: two-fold serial dilutions in liquid media, n = 2–3
B. subtilis ATCC6633 = assay: MIC assay; assay type: cell-based, Bacillus subtilis; details: Bacillus subtilis, ATCC6633; two-fold serial dilutions in liquid media; n = 2–3
[2] = system: Mycobacterium abscessus S (CIP 104536^T); assay: MIC assay (REMA); assay type: cell-based; details: REMA microdilution, n = 2–3
E. coli ATCC8739 = assay: MIC assay; assay type: cell-based, Escherichia coli; details: Escherichia coli, ATCC8739; two-fold serial dilutions in liquid media; n = 2–3
[3] = system: Mycobacterium tuberculosis H37Rv (mc^26230); assay: MIC assay (REMA); assay type: cell-based; details: REMA microdilution, n = 2–3
[4] = Cytotoxic assay, summary over the six human cell types; details: human, 48 h exposure
[5] = system: Francisella tularensis (NR-643); assay: microbe, parasite or virus in culture; assay type: cell-based; details: read-out: MIC Francisella tularensis (NR-643)
[6] = Cytotoxic assay (resazurin); details: human, BEAS-2B normal lung epithelial cells
[7] = system: Mycobacterium abscessus R(CIP 104536^T); assay: MIC assay (REMA); assay type: cell-based; details: REMA microdilution, n = 2–3
[8] = system: Clostridium botulinum (DSM1985); assay: microbe, parasite or virus in culture; assay type: cell-based; details: DSM1985, read-out: MIC Clostridium botulinum (DSM1985)
[9] = Cytotoxic assay (resazurin); details: human, IMR-90 normal lung fibroblasts
Candida auris (DSM21092) = assay: MIC assay; assay type: cell-based; details: Candidozyma auris, two-fold serial dilutions in liquid media, n = 2–3
[10] = system: Listeria monocytogenes (DSM20600); assay: MIC assay; assay type: cell-based; details: two-fold serial dilutions in liquid media, n = 2–3
[11] = system: Enterobacter cloacae (DSM30054); assay: MIC assay; assay type: cell-based; details: two-fold serial dilutions in liquid media, n = 2–3
[12] = system: Clostridium perfringens (ATCC13124); assay: microbe, parasite or virus in culture; assay type: cell-based; details: ATCC13124, read-out: MIC Clostridium perfringens (ATCC13124)
[13] = system: Bacillus anthracis (CNR-charbon_04022); assay: microbe, parasite or virus in culture; assay type: cell-based; details: read-out: MIC Bacillus anthracis (CNR-charbon_04022)
[14] = system: Propionibacterium acnes (ATCC6919); assay: MIC assay; assay type: cell-based; details: Cutibacterium acnes, two-fold serial dilutions in liquid media, n = 2–3
[15] = system: Shigella flexneri (ATCC12022); assay: MIC assay; assay type: cell-based; details: two-fold serial dilutions in liquid media, n = 2–3
C. albicans DSM10697 = assay: MIC assay; assay type: cell-based, Candida albicans; details: Candida albicans, DSM10697; two-fold serial dilutions in liquid media; n = 2–3
[16] = system: Brucella melitensis (NR-256); assay: microbe, parasite or virus in culture; assay type: cell-based; details: read-out: MIC Brucella melitensis (NR-256)
P. aeruginosa ATCC9027 = assay: MIC assay; assay type: cell-based, Pseudomonas aeruginosa; details: two-fold serial dilutions in liquid media, n = 2–3
MRSA (ATCCBAA-1717) = assay: MIC assay; assay type: cell-based, methicillin-resistant S. aureus; details: Staphylococcus aureus, read-out: MIC MRSA (ATCCBAA-1717)
[17] = system: Candida glabrata (DSM11226); assay: MIC assay; assay type: cell-based; details: Nakaseomyces glabratus, two-fold serial dilutions in liquid media, n = 2–3
[18] = system: Cryptococcus neoformans (DSM11959); assay: MIC assay; assay type: cell-based; details: two-fold serial dilutions in liquid media, n = 2–3
Yersinia pestis (NR-641) = assay: microbe, parasite or virus in culture; assay type: cell-based; details: read-out: MIC Yersinia pestis (NR-641)
[19] = system: Enterococcus faecium (DSM20477); assay: MIC assay; assay type: cell-based; details: two-fold serial dilutions in liquid media, n = 2–3
[20] = system: Helicobacter pylori (ATCC43504); assay: MIC assay; assay type: cell-based; details: two-fold serial dilutions in liquid media, n = 2–3
[21] = system: Streptococcus pyogenes (DSM20565); assay: MIC assay; assay type: cell-based; details: two-fold serial dilutions in liquid media, n = 2–3
[22] = system: Klebsiella pneumonia (DSM26371); assay: MIC assay; assay type: cell-based; details: two-fold serial dilutions in liquid media, n = 2–3
[23] = Cytotoxic assay (resazurin); details: human, HaCaT normal epidermal keratinocytes
[24] = system: Acinetobacter baumannii (DSM30007); assay: MIC assay; assay type: cell-based; details: two-fold serial dilutions in liquid media, n = 2–3
[25] = system: Clostridium difficile (DSM1296); assay: MIC assay; assay type: cell-based; details: Clostridioides difficile, two-fold serial dilutions in liquid media, n = 2–3
[26] = system: Salmonella enterica (CIP80.39); assay: MIC assay; assay type: cell-based; details: two-fold serial dilutions in liquid media, n = 2–3
Bacillus cereus (DSM31) = assay: MIC assay; assay type: cell-based; details: two-fold serial dilutions in liquid media, n = 2–3
M. smegmatis ATCC700084 = assay: MIC assay (REMA); assay type: cell-based, Mycobacterium smegmatis; details: Mycolicibacterium smegmatis, ATCC700084, REMA microdilution, n = 2–3
[27] = system: Vibrio alginolyticus (DSM2171); assay: MIC assay; assay type: cell-based; details: two-fold serial dilutions in liquid media, n = 2–3
[28] = Cytotoxic assay (resazurin); details: human, HepG2 liver cells
[29] = system: Enterococcus faecalis (DSM2570); assay: MIC assay; assay type: cell-based; details: two-fold serial dilutions in liquid media, n = 2–3
[30] = Cytotoxic assay (resazurin); details: human, A498 kidney epithelial cells
[31] = system: Aspergillus fumigatus (DSM819); assay: MIC assay; assay type: cell-based; details: two-fold serial dilutions in liquid media, n = 2–3
[32] = system: Fusarium oxysporum (DSM62316); assay: MIC assay; assay type: cell-based; details: two-fold serial dilutions in liquid media, n = 2–3
[33] = Cytotoxic assay (resazurin); details: human, Caco-2

SMILES: CC(=O)Nc1ccc2c(c1)C(=O)/C(=C/c1ccc(OC(C)C)cc1)O2 [Compound 20, (Z)-N-(2-(4-isopropoxybenzylidene)-3-oxo-2,3-dihydrobenzofuran-5-yl)acetamide]
- MIC (S. aureus ATCC6538P): 12.5 µM (≈ 4.22 µg/mL)
- MIC [1]: 100 µM (≈ 33.7 µg/mL)
- MIC (B. subtilis ATCC6633): 25 µM (≈ 8.43 µg/mL)
- MIC ([2]; Mycobacteroides abscessus, CIP104536, S morphotype): > 100 µM
- MIC Mycobacterium abscessus S (CIP 104536^T) ([2]; S morphotype): inactive
- MIC (E. coli ATCC8739): 25 µM (≈ 8.43 µg/mL)
- MIC ([3]; Mycobacterium tuberculosis, H37RV): > 100 µM
- MIC Mycobacterium tuberculosis H37Rv (mc^26230) [3]: inactive
- CC50 at 48 h ([4]; Highest CC50, highest of the six human cell types): > 500 µM
- CC50 at 48 h ([4]; Lowest CC50, lowest of the six human cell types): 126 µM
- MIC [5]: 12.5 µM (≈ 4.22 µg/mL)
- CC50 at 48 h [6]: 126 µM
- IC50 at 48 h [6]: 126 µM
- MIC ([7]; Mycobacteroides abscessus, CIP104536, R morphotype): > 100 µM
- MIC Mycobacterium abscessus R(CIP 104536^T) ([7]; R morphotype): inactive
- MIC [8]: 3.12 µM (≈ 1.05 µg/mL)
- CC50 at 48 h [9]: 438 µM
- IC50 at 48 h [9]: 438 µM
- MIC (Candida auris (DSM21092)): 12.5 µM (≈ 4.22 µg/mL)
- MIC [10]: 6.25 µM (≈ 2.11 µg/mL)
- MIC ([11]; Enterobacter cloacae, DSM30054): > 100 µM
- MIC [11]: >100 µM
- MIC [12]: > 100 µM
- MIC [13]: 6.25 µM (≈ 2.11 µg/mL)
- MIC [14]: > 100 µM
- MIC [15]: 50 µM (≈ 16.9 µg/mL)
- MIC (C. albicans DSM10697): 50 µM (≈ 16.9 µg/mL)
- MIC [16]: 12.5 µM (≈ 4.22 µg/mL)
- MIC (P. aeruginosa ATCC9027; Pseudomonas aeruginosa, ATCC9027): > 100 µM
- MIC (P. aeruginosa ATCC9027): >100 µM
- MIC (MRSA (ATCCBAA-1717)): 25 µM (≈ 8.43 µg/mL)
- MIC [17]: 50 µM (≈ 16.9 µg/mL)
- MIC [18]: 25 µM (≈ 8.43 µg/mL)
- MIC (Yersinia pestis (NR-641)): 12.5 µM (≈ 4.22 µg/mL)
- MIC [19]: 25 µM (≈ 8.43 µg/mL)
- MIC [20]: 12.5 µM (≈ 4.22 µg/mL)
- MIC [21]: 50 µM (≈ 16.9 µg/mL)
- MIC ([22]; Klebsiella pneumoniae, DSM26371): > 100 µM
- MIC [22]: >100 µM
- CC50 at 48 h [23]: 323 µM
- IC50 at 48 h [23]: 323 µM
- MIC [24]: 25 µM (≈ 8.43 µg/mL)
- MIC [25]: 3.12 µM (≈ 1.05 µg/mL)
- MIC [26]: 50 µM (≈ 16.9 µg/mL)
- MIC (Bacillus cereus (DSM31)): 25 µM (≈ 8.43 µg/mL)
- MIC (M. smegmatis ATCC700084): 50 µM (≈ 16.9 µg/mL)
- MIC [27]: 50 µM (≈ 16.9 µg/mL)
- CC50 at 48 h [28]: > 500 µM
- IC50 at 48 h [28]: > 500 µM
- MIC [29]: 100 µM (≈ 33.7 µg/mL)
- CC50 at 48 h [30]: 453 µM
- IC50 at 48 h [30]: 453 µM
- MIC ([31]; Aspergillus fumigatus, DSM819): > 100 µM
- MIC Aspergillus fumigatus (DSM819) [31]: inactive
- MIC [32]: 25 µM (≈ 8.43 µg/mL)
- CC50 at 48 h [33]: 186 µM
- IC50 at 48 h [33]: 186 µM
